Here are results for 13 molecules from patent US20150329558A1, “FUSED HETEROCYCLIC COMPOUNDS AS ION CHANNEL MODULATORS” (Gilead Sciences, Inc., priority 2011, published 2015).

Like-named read-outs stand apart in the source and are kept apart here.

For series [1], the target named is wild-type human cardiac sodium channel, hNav1.5 (peak INa) (Homo sapiens, UniProt Q14524). The experiment in a line: Peak INa screening assay (tonic and use-dependent block). The class given is cell-based. On the procedure: The late sodium current (Late INa) and peak sodium current (Peak INa) assays are performed on an automated electrophysiology platform, QPatch 16× (Sophion Bioscience, Copenhagen, Denmark), which uses the whole cell patch clamp technique to measure currents through the cell membrane of up to 16 cells at a time. The assay uses an HEK293 (human embryonic kidney) cell line heterologously expressing the wild-type human cardiac sodium channel, hNav1.5, purchased from Millipore (Billerica, Mass.). No beta subunits were coexpressed with the Na channel alpha subunit. Cells are maintained with standard tissue culture procedures and stable channel expression is maintained with 400 μg/mL Geneticin in the culture medium. […] Experiments are carried out at 23-25° C. For both the Late INa and Peak INa assays, series resistance compensation is set to 100% and series resistance and whole-cell compensation are performed automatically. Currents are digitized at 25 kHz and low-pass filtered at 12 kHz and 10 kHz for the late and peak INa assays, respectively. Currents through open sodium channels are automatically recorded and stored in the Sophion Bioscience Oracle database (Sophion Bioscience, Copehagen, Denmark). Analysis is performed using QPatch Assay and database software and data are compiled in Excel. Compound stocks are routinely made by the Gilead Sample Bank in plastic vials to 10 mM in dimethyl sulfoxide (DMSO). In some cases, when compounds are not soluble in DMSO, they are made in 100% ethanol. Stocks are sonicated as necessary. […] The intracellular solution used to perfuse the inside of the cells for both the Late INa and Peak INa assays contains: 120 mM CsF, 20 mM CsCl, 5 mM EGTA, 5 mM HEPES and pH adjusted to 7.4 with CsOH. Compounds are diluted in extracellular solution to 1 μM in glass vials and then transferred to glass well plates before robotic addition to the cells. […] Compounds were also evaluated for their effect in several other assays, including their effect on Peak INa. Good separation between the concentrations of test compound to reduce late and peak INa is beneficial to enable separation of the desired effect to reduce late INa-induced electrical and mechanical dysfunction from the undesired effect to reduce peak INa, which can lead to slowing or block of conduction of electrical excitation in the heart. It is contemplated that the compounds of Formula I avoid significant block of peak INa. Since the peak INa in the cells used herein can be very large, introducing artifacts in the recording, the concentration of Na^+ in the bath can be reduced to 20 mM and a nonpermeant cation added to compensate for the Na^+ that was removed to maintain the osmolarity and ionic strength of the solution (see solution details below). Analysis of peak INa generally requires correction for rundown before determining the % block of peak current by the tested compound. […] A low stimulation frequency of 0.1 Hz was used to determine the effect of the test compound when the channel spent most of the time in the resting (closed) state and provides information about Tonic Block (TB). A higher stimulation frequency (3 Hz) was used to measure block of the channel when it spent more time in the activated and inactivated states and provided a measure of Use-Dependent Block (UDB). Use-dependent block refers to the accumulation of block with increased frequency of channel activation. Block of cardiac peak INa by compounds of this invention is increased with an increase in the frequency of stimulation from 0.1 to 1-5 Hz (frequencies encountered either in the normal heart or during tachycardia). It is therefore expected that reduction of peak INa by compounds of this invention will be greater at high heart rates, such as those during tachyarrhythmias, than at normal heart rates. […]

The nature of series [2]: Microsomal stability assay, rat. The class given is in vitro ADME. To be noted: metabolic stability, rat liver microsomes 0.5 mg/mL, substrate 3 uM. The procedure, abridged: (§1)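 Liver microsomes at 0.5 mg/mL protein in 100 mM KPO4 buffer, incubated with 3 uM compound and NADPH-regenerating system, run in duplicate. Samples taken at 2, 12, 25, 45 and 65 min and quenched in MeOH/ACN/water before analysis.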

The nature of series [3]: Microsomal stability assay, dog. To be noted: metabolic stability, dog liver microsomes 0.5 mg/mL, substrate 3 uM. The class given is in vitro ADME. The method in brief: as §1
Series [4] concerns the target wild-type human cardiac sodium channel, hNav1.5 (late INa) (Homo sapiens, UniProt Q14524). The experiment in a line: Late INa screening assay (QPatch whole cell patch clamp). The class given is cell-based. The method in brief:
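Compounds tested at 1 μM final in extracellular solution against tefluthrin (10 μM)-enhanced late current. Automated patch clamp (23-25° C) on HEK293 expressing alpha subunit alone: −120 mV holding, 250 ms depolarization to −20 mV every 10 s. Read-out is percent inhibition of mean current over 225–250 ms.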

Series [5] is described as follows: Microsomal stability assay, human. The class given is in vitro ADME. To be noted: metabolic stability, human liver microsomes 0.5 mg/mL, substrate 3 uM. The method in brief: as §1
The mark [6] stands for this setting: tonic block of peak INa, 0.1 Hz, 1 μM, read-out: Peak TB 1 μM.
The mark [7] stands for this setting: use-dependent block of peak INa, 3 Hz, 1 μM, read-out: Peak UDB 1 μM.
The mark [8] stands for this setting: percent block of late INa, compound at 1 μM, 10 μM Tefluthrin, HEK293 hNav1.5, read-out: Late INa 1 μM.

Sequence of wild-type human cardiac sodium channel, hNav1.5 (late INa) (Q14524 whole entry): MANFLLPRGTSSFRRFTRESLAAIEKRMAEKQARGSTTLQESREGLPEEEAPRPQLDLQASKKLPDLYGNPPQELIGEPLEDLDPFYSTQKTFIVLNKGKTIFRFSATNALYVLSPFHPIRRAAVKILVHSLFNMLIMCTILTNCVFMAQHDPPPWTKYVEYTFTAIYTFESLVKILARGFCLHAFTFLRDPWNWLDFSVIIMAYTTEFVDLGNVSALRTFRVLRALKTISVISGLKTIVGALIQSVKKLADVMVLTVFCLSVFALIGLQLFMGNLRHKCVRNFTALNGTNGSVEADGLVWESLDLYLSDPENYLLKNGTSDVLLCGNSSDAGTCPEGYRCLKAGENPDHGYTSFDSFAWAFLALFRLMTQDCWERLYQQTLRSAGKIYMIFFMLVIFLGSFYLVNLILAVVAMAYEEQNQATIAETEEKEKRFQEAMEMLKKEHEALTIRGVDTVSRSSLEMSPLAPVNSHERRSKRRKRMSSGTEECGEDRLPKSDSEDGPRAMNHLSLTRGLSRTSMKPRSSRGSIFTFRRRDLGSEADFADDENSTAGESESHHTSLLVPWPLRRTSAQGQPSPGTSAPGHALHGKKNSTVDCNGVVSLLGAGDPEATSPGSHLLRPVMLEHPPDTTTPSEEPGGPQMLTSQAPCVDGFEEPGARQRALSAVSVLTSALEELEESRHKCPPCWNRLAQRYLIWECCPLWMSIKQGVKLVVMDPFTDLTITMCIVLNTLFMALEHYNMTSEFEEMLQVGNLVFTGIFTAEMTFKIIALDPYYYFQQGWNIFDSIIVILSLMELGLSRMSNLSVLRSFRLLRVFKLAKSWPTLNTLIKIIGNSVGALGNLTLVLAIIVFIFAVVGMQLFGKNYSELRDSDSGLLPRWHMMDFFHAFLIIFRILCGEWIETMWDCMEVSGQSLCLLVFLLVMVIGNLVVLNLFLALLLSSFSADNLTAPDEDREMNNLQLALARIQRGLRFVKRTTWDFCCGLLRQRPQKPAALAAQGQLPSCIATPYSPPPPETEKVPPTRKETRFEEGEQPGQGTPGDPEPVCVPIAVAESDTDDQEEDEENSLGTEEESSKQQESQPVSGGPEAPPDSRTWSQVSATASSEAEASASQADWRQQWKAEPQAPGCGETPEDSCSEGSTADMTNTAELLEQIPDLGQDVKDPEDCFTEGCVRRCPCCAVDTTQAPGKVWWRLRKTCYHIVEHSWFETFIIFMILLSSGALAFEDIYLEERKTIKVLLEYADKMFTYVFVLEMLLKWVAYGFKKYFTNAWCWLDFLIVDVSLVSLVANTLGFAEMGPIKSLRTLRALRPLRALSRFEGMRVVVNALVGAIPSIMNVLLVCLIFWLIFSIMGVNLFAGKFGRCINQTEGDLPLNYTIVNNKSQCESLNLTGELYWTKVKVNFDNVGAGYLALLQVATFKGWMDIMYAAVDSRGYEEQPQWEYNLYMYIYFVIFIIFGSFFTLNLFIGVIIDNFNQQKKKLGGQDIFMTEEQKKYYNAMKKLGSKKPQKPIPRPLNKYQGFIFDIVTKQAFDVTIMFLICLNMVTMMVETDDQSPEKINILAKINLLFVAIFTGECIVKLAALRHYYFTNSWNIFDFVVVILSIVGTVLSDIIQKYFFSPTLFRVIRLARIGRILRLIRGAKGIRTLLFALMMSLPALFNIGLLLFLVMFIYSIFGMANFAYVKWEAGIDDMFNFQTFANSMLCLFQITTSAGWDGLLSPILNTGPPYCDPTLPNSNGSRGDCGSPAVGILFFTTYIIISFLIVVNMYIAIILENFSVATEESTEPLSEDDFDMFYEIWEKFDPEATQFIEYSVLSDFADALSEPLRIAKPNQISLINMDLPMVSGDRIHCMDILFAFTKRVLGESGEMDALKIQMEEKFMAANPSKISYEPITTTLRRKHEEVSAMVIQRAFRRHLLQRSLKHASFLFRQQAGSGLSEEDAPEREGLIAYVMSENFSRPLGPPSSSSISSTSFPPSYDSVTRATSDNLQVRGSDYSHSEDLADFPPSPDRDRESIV
Sequence of wild-type human cardiac sodium channel, hNav1.5 (peak INa) (Q14524 whole entry): as above

For the molecule `O=c1c2cc(-c3ccc(OC(F)(F)F)cc3)ccc2nnn1Cc1cc(-c2ccccn2)on1` [II-47, 3-((5-(pyridin-2-yl)isoxazol-3-yl)methyl)-6-(4-(trifluoromethoxy)phenyl)benzo[d][1,2,3]triazin-4(3H)-one], the inhibition at 1 µM in series [1] (setting [6]) was 6%; in series [1] (setting [7]), 4%; in series [4] (setting [8]), 44%. The MS Rat THalf in series [2] stood at 71 min. Also, in series [3], the MS Dog THalf was 24 min. The molecule also returned an MS Human THalf in series [5] of 339 min.
For the molecule `COC(=O)C1(Cn2nnc3ccc(-c4ccc(OC(F)(F)F)cc4)cc3c2=O)CC1` [II-55, methyl 1-((4-oxo-6-(4-(trifluoromethoxy)phenyl)benzo[d][1,2,3]triazin-3 (4H)-yl)methyl)cyclopropanecarboxylate], the inhibition at 1 µM came to 7% in series [1] (% inhibition at 1 μM, tonic block, read-out: NAv1.5*-PEAK-TB-); 3% in series [1] (% inhibition at 1 μM, use-dependent block 3 Hz, read-out: NAv1.5*-PEAK-UDB-3 HZ-); 7% in series [1] (setting [6]); 3% in series [1] (setting [7]); 58% in series [4] (% inhibition at 1 μM, read-out: NAv1.5*-LATE-); 58% in series [4] (setting [8]). The molecule also yielded an MS Rat THalf in series [2] of 2 min. The molecule also displayed an MS Dog THalf in series [3] of 2 min. Besides, the MS Human THalf in series [5] was 14 min.
With `O=c1c2cc(-c3ccc(OC(F)(F)F)cc3)ccc2nnn1CC1(CN2CCCC2)CC1` [II-63, 3-((1-(pyrrolidin-1-ylmethyl)cyclopropyl)methyl)-6-(4-(trifluoromethoxy)phenyl)benzo[d][1,2,3]triazin-4(3H)-one], the inhibition at 1 µM is 23% in series [1] (setting [6]), 50% in series [1] (setting [7]) and 46% in series [4] (setting [8]). Moreover, the MS Rat THalf in series [2] was determined as 31 min. Besides, the MS Dog THalf in series [3] stood at 36 min. The MS Human THalf in series [5] worked out at 34 min.
Consider `Cc1cc(C)n(CC2(Cn3nnc4ccc(-c5ccc(OC(F)(F)F)cc5)cc4c3=O)CC2)n1` [II-64, 3-((1-((3,5-dimethyl-1H-pyrazol-1-yl)methyl)cyclopropyl)methyl)-6-(4-(trifluoromethoxy)phenyl)benzo[d][1,2,3]triazin-4(3H)-one], for which the inhibition at 1 µM in series [1] (setting [6]) came out at 3%; in series [1] (setting [7]) it was 9%; in series [4] (setting [8]) it was 43%. In addition, the MS Rat THalf in series [2] was 16 min. This molecule yielded an MS Dog THalf in series [3] of 7 min. Moreover, in series [5], the MS Human THalf came to 11 min.
Consider `Cc1noc(Cn2nnc3ccc(-c4ccc(C5CC5)cc4)cc3c2=O)n1` [II-73, 6-(4-cyclopropylphenyl)-3-((3-methyl-1,2,4-oxadiazol-5-yl)methyl)benzo[d][1,2,3]triazin-4(3H)-one], for which the inhibition at 1 µM in series [1] (setting [6]) stood at 6%; in series [1] (setting [7]), 1%; in series [4] (setting [8]), 45%. This molecule had an MS Rat THalf in series [2] of 29 min. This molecule registered an MS Dog THalf in series [3] of 5 min. This molecule also had an MS Human THalf in series [5] of 16 min.
For the molecule `O=c1c2cc(-c3ccc(OC(F)(F)F)cc3)ccc2nnn1CC1(CO)CC1` [II-75, 3-((1-(hydroxymethyl)cyclopropyl)methyl)-6-(4-(trifluoromethoxy)phenyl)benzo[d][1,2,3]triazin-4(3H)-one], the inhibition at 1 µM in series [1] (setting [6]) was 11%; in series [1] (setting [7]), 7%; in series [4] (setting [8]), 53%. In series [2], this molecule came in with an MS Rat THalf of 75 min. The molecule also returned an MS Dog THalf in series [3] of 85 min. The same molecule came in with an MS Human THalf in series [5] of 371 min.
For the molecule `O=c1c2cc(-c3ccc(OC(F)(F)F)cc3)ccc2nnn1CC1(COc2ncccn2)CC1` [II-80, 3-((1-((pyrimidin-2-yloxy)methyl)cyclopropyl)methyl)-6-(4-(trifluoromethoxy)phenyl)benzo[d][1,2,3]triazin-4(3H)-one], the inhibition at 1 µM in series [1] (read-out: Peak TB 1 μM) was determined as 8%; in series [1] (read-out: Peak UDB 1 μM), 7%; in series [4] (setting [8]) it was 42%. Moreover, the MS Rat THalf in series [2] was 34 min. The molecule further gave an MS Dog THalf in series [3] of 85 min. Also, the MS Human THalf in series [5] came to 49 min.
For `Cc1cnc(Cn2nnc3ccc(-c4ccc(OC(F)(F)F)cc4)cc3c2=O)o1` [II-96, 3-((5-methyloxazol-2-yl)methyl)-6-(4-(trifluoromethoxy)phenyl)benzo[d][1,2,3]triazin-4(3H)-one], the inhibition at 1 µM came out at 10% in series [1] (setting [6]), 5% in series [1] (setting [7]) and 51% in series [4] (setting [8]). The MS Rat THalf in series [2] was 34 min. The MS Dog THalf in series [3] turned out to be 81 min. Moreover, the MS Human THalf in series [5] amounted to 84 min.
In the case of `Cc1coc(Cn2nnc3ccc(-c4ccc(OC(F)(F)F)cc4)cc3c2=O)n1` [II-97, 3-((4-methyloxazol-2-yl)methyl)-6-(4-(trifluoromethoxy)phenyl)benzo[d][1,2,3]triazin-4(3H)-one], the inhibition at 1 µM in series [1] (setting [6]) worked out at 12%; in series [1] (setting [7]) it was 7%; in series [4] (setting [8]), 54%. This molecule displayed an MS Rat THalf in series [2] of 24 min. Moreover, the MS Dog THalf in series [3] is 63 min. In addition, the MS Human THalf in series [5] turned out to be 206 min.
For the molecule `Cc1nc(Cn2nnc3ccc(-c4ccc(OC(F)(F)F)cc4)cc3c2=O)co1` [II-99, 3-((2-methyloxazol-4-yl)methyl)-6-(4-(trifluoromethoxy)phenyl)benzo[d][1,2,3]triazin-4(3H)-one], the inhibition at 1 µM is 9% in series [1] (setting [6]), 0% in series [1] (setting [7]) and 47% in series [4] (setting [8]). For the same molecule, the MS Rat THalf in series [2] was found to be 42 min. In addition, the MS Dog THalf in series [3] is 62 min. In addition, in series [5], the MS Human THalf was determined as 128 min.
For `O=c1c2cc(-c3ccc(OC(F)(F)F)cc3)ccc2nnn1Cc1coc(C2CC2)n1` [II-100, 3((2-cyclopropyloxazol-4-yl)methyl)-6-(4-(trifluoromethoxy)phenyl)benzo[d][1,2,3]triazin-4(3H)-one], the inhibition at 1 µM in series [1] (setting [6]) turned out to be 15%; in series [1] (setting [7]) it was 2%; in series [4] (setting [8]), 50%. The molecule further displayed an MS Rat THalf in series [2] of 35 min. Also, in series [3], the MS Dog THalf was found to be 76 min. In series [5], this molecule gave an MS Human THalf of 52 min.
For `O=c1c2cc(-c3ccc(OC(F)(F)F)cc3)ccc2cnn1Cc1nccc(C2CC2)n1` [III-23, 2-((4-cyclopropylpyrimidin-2-yl)methyl)-7-(4-(trifluoromethoxy)phenyl)phthalazin-1 (2H)-one], the figures for the inhibition at 1 µM in series [1] (setting [6]), in series [1] (setting [7]) and in series [4] (setting [8]) were 6%, 12% and 51%, respectively. The MS Rat THalf in series [2] was found to be 42 min. This molecule showed an MS Dog THalf in series [3] of 209 min. For the same molecule, the MS Human THalf in series [5] came to 254 min.
Regarding `O=c1c2cc(-c3ccc(OC(F)(F)F)cc3)ccc2cnn1Cc1nccc(OCC2CC2)n1` [III-27, 2((4-(cyclopropylmethoxy)pyrimidin-2-yl)methyl)-7-(4-(trifluoromethoxy)phenyl)phthalazin-1 (2H)-one], the inhibition at 1 µM in series [1] (setting [6]) was 15%; in series [1] (setting [7]) it was 15%; in series [4] (setting [8]) it was 52%. In series [2], this molecule registered an MS Rat THalf of 43 min. This molecule showed an MS Dog THalf in series [3] of 83 min. The MS Human THalf in series [5] was 268 min.
